Earlier results on 4 compounds are cited in US11377636B2, “Endogenous retrovirus transcription as a marker for primate naive pluripotent stem cells” (Max-Delbrück-Centrum für Molekulare Medizin in der …, priority 2014, dated 2022).

One data set concerns the target T1, PKCμ (Homo sapiens, UniProt Q15139).
T1 sequence (Q15139 1-912): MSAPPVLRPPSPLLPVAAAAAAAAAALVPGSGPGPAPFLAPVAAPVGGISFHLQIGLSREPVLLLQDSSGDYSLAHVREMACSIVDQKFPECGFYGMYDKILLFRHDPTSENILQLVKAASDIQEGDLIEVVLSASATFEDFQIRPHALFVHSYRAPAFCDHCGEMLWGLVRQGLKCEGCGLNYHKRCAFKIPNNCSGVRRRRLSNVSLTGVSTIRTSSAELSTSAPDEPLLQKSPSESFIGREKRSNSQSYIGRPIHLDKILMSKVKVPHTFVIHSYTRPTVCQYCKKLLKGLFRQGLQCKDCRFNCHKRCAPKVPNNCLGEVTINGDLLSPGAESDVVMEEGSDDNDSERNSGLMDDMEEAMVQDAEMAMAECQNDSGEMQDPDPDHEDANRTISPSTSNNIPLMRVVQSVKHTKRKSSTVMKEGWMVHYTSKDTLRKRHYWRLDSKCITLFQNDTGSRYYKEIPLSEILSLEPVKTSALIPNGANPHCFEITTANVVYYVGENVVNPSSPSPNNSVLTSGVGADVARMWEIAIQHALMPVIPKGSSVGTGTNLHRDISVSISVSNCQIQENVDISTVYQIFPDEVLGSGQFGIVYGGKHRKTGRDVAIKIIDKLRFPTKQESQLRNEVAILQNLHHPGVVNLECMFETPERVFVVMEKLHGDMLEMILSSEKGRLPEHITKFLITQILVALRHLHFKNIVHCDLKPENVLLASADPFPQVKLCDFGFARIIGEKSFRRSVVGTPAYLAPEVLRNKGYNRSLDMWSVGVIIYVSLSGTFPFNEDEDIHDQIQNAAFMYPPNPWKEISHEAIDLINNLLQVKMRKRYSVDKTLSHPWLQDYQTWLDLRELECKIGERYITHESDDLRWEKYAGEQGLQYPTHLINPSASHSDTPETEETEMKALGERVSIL
As to conditions: does not effectively inhibit PKCμ.

In the next data set the target is PKCα (Homo sapiens, UniProt P17252).
The target of a further data set is PKCδ (Homo sapiens, UniProt Q05655).
The target of a further data set is PKCγ (Homo sapiens, UniProt P05129).
A further data set addresses PKCβ (Homo sapiens, UniProt P05771).
The next data set has as its target T2, PKCζ (Homo sapiens, UniProt Q05513).
T2 sequence (Q05513 1-592): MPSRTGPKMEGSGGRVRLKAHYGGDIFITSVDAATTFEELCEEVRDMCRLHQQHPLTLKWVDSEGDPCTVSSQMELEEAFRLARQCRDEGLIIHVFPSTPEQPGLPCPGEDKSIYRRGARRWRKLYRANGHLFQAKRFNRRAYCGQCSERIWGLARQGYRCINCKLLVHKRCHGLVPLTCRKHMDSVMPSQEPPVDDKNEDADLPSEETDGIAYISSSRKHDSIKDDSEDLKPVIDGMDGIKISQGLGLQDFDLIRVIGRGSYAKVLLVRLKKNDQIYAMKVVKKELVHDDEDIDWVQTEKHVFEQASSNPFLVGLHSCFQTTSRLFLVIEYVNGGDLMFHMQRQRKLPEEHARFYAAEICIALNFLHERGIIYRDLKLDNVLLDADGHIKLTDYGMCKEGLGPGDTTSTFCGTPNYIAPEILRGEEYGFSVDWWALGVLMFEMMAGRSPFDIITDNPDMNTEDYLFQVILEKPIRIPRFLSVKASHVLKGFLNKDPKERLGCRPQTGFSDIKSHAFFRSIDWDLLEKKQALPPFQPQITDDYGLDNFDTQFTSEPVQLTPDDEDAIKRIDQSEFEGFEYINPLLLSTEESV

Another data set addresses GSK3β (Homo sapiens, UniProt P49841).
A further data set concerns the target Src kinase (Homo sapiens, UniProt P12931).
The target of the next data set is KDR (Homo sapiens, UniProt P35968).
Chain of KDR (P35968 20-1356, species assumed): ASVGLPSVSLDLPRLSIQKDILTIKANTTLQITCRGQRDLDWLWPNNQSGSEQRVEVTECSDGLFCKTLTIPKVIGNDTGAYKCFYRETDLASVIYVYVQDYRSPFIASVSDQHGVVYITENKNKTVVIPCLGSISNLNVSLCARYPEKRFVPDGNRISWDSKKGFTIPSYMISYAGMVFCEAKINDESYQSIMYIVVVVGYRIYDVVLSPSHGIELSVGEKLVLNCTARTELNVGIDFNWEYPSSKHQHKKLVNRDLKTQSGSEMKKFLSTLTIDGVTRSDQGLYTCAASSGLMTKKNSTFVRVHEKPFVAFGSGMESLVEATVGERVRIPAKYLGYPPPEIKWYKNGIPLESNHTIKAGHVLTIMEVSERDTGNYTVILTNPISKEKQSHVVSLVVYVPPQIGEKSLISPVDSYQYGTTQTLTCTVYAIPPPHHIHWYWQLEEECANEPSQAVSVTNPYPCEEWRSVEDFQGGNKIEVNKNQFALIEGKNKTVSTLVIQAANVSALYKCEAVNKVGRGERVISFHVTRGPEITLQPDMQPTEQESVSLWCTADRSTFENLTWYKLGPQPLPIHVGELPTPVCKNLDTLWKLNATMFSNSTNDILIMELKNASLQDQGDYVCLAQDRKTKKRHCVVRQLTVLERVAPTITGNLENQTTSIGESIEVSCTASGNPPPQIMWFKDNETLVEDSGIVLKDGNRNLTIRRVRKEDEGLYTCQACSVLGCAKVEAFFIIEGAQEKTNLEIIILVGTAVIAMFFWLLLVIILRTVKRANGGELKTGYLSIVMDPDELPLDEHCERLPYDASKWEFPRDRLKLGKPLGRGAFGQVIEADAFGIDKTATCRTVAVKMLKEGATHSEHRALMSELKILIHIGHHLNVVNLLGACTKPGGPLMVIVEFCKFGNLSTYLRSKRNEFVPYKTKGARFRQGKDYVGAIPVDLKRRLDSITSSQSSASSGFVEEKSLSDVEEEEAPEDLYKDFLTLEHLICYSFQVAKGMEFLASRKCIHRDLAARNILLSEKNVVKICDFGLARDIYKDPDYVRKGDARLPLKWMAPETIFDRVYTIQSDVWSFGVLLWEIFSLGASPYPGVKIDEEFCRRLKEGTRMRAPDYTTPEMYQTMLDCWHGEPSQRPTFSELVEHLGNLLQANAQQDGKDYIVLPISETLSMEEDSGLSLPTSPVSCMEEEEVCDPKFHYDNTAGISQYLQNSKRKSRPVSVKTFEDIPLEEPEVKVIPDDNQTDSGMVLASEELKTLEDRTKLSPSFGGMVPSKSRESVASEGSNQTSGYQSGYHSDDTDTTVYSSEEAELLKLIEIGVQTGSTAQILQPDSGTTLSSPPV

Chain of PKCδ (Q05655 whole entry): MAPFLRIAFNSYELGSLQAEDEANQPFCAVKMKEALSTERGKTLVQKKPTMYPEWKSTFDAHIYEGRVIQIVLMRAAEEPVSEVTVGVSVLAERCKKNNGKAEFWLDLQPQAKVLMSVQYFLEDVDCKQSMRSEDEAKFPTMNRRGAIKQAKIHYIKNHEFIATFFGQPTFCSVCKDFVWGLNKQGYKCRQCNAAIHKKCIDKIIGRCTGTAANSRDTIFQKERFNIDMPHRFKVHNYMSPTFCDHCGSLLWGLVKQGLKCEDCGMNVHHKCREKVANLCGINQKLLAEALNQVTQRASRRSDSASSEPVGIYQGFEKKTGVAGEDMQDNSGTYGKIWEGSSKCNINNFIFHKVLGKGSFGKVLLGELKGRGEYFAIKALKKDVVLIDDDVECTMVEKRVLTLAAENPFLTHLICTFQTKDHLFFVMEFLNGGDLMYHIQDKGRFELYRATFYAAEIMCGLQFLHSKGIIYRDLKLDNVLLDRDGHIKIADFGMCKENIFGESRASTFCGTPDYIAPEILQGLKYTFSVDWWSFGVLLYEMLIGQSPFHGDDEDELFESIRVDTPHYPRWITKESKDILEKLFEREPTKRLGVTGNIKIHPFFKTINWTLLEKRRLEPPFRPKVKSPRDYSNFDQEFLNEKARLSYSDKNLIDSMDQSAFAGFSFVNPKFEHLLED
Chain of GSK3β (P49841 whole entry, species assumed): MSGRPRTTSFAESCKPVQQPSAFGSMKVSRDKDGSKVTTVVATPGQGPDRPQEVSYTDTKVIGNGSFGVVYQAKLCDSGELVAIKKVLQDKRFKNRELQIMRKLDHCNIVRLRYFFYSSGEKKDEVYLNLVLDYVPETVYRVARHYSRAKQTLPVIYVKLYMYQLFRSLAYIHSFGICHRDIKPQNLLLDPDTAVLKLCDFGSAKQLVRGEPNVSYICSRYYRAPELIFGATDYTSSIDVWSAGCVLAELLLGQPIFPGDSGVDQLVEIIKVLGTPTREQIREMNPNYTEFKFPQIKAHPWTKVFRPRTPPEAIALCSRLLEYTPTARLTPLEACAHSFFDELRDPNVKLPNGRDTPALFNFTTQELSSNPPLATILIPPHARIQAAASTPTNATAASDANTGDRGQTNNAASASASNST
Chain of PKCβ (P05771 whole entry, species assumed): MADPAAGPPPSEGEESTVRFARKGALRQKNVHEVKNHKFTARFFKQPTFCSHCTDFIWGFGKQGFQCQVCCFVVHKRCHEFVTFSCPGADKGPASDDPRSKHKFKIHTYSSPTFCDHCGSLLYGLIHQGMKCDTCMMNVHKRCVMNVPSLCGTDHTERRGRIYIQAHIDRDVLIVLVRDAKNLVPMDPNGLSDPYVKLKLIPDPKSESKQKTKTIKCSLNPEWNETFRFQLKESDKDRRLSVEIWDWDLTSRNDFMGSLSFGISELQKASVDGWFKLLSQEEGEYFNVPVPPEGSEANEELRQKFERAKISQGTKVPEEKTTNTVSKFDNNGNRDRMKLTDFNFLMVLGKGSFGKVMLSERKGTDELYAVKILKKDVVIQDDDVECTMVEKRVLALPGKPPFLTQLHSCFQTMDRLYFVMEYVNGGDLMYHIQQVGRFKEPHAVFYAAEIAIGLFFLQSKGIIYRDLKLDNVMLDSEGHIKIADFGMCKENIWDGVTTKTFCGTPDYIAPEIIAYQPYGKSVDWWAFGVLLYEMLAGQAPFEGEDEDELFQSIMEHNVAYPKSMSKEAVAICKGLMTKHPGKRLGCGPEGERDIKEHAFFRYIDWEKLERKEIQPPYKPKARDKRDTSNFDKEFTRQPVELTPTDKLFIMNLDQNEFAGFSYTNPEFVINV

Turning to `CN1C(=O)[C@@]23C[C@]4([C@]56C[C@@]78SS[C@@](CO)(C(=O)N7[C@H]5Nc5ccccc56)N(C)C8=O)c5ccccc5N[C@@H]4N2C(=O)[C@]1(CO)SS3` [Chaetocin], the “cytotoxicity against HeLa cells IC50” value in the data set with HeLa cells was 0.05 µg/mL.
For orientation: IC50 means the concentration needed to halve the response being measured. As for `COc1ccc2c(c1)c(C1=C(c3c[nH]c4ccccc34)C(=O)NC1=O)cn2CCCN(C)C` [Go6983], the IC50 is 20000 nM on PKCμ; 7 nM at PKCα; 10 nM on PKCδ; 6 nM at PKCγ; 7 nM at PKCβ; 60 nM at PKCζ.
Regarding `Cc1[nH]c2ccccc2c1C1=C(NCCc2ccc(F)cc2)C(=O)N(C)C1=O` [IM-12], the IC50 at GSK3β was 53 nM.
For WH-4-023, the IC50 at Src kinase is 6 nM. In addition, the “inhibition on KDR” value at KDR is given as “little inhibition”.
